Measurements published in patent publication US12440582B2, “Biothiol-activatable probe and method of use” (BOARD OF REGENTS, THE UNIVERSITY OF TEXAS SYSTEM, priority 2019, dated 2025).
Where a name gives a salt, the structure may show the parent alone. One block for each compound: values may come before it.

Columns and labels:
[1] = tested on: liver GSH; experiment: Liver GSH level measured ex vivo (Tietze enzymatic recycling assay); type: in vivo, BALB/c mice; settings: for hepatic GSH level: 30 min p.i.
[2] = tested on: serum GSH; experiment: Serum GSH level following APAP administration; type: in vivo, mice; settings: 2 h after APAP 300 mg/kg i.p.
Method: FIG. 54. Serum GSH level following APAP administration. […] Data reported are means and standard deviation overlapped with data points from individual mouse. Statistical significance is evaluated by two-sample equal variance t-test. P<0.05 is considered statistically significant. N=4 mice for the experiment.

[3] = in vivo
Source text: FIGS. 39A-E. Utilization of hepatic glutathione-mediated biotransformation to enhance tumor targeting of a cisplatin prodrug. (FIG. 39A) Scheme illustrating the rationale of designing the ICG-Cis-Pt prodrug by combining temporal serum protein binding and hepatic glutathione-mediated biotransformation to slow down the rapid renal clearance of Cis-Pt prodrug and enhance its tumor targeting efficiency while avoiding predominant accumulation in MPS. […] (FIG. 39C) Tumor targeting efficiency of Cis-Pt pro drug and ICG-Cis-Pt prodrug at 48 hr p.i. (FIG. 39D) Renal clearance profiles of Cis-Pt prodrug and ICG-Cis-Pt prodrug. […] (FIG. 39E) Biodistribution of Pt in organs at 48 hr and 7 day following intravenously injection of ICG-Cis-Pt prodrug. The accumulation of ICG-Cis-Pt in MPS as well as in other major organs is low and continues to decrease over time. Statistical significance is evaluated by two-sample t-test (**p<0.01).

[4] = tested on: plasma GSH; experiment: Plasma glutathione level after DEM administration; type: in vivo, BALB/c mice
Method: FIGS. 21A-B. Plasma glutathione level after DEM administration. (FIG. 21A) Plasma total glutathione (reduced GSH+2GSSG) and glutathione disulfide (GSSG) concentration at various time points after intraperitoneal injection of 1 mL/kg DEM in mice (n=3). (FIG. 21B) Plasma reduced glutathione concentration at different time was then calculated by subtracting GSSG from the total GSH concentration. The quantification of plasma total GSH and GSSG was carried out according to the established procedures (Rahman et al., 2006) via a modified Tietze enzymatic recycling assay.
Depletion of tissue GSH in vivo.

[5] = tested on: APAP-induced liver injury; experiment: NAC treatment of APAP-induced liver injury (liver morphology, TUNEL); type: in vivo, mice
Method: FIGS. 44A-D. Monitoring hepatic GSH depletion in drug-induced liver injury allows early treatment and improves prognosis. (FIG. 44A) Scheme of the APAP metabolism and pathophysiology process of APAP overdose induced hepatotoxicity. Hepatic GSH depletion occurs much earlier than the death of hepatocytes and the release of serum biomarkers. (FIG. 44B) Serum ALT levels of mice (N=3) at multiple time points after receiving 300 mg/kg body weight APAP. […] (FIG. 44C) Serum ALT levels of mice (N=3) at 12 h post injection of overdose APAP with NAC treatment at different time points after APAP administration. (FIG. 44D) Representative color pictures of the liver (12 h after APAP administration) as well as fluorescent microscope images of cell death in liver tissues (detected using TUNEL assay) from APAP overdosed mice without NAC treatment or receiving NAC treatment at 30 min (early treatment) and 5.5 h (delayed treatment) after APAP administration. Cell nuclei were counter-stained with DAPI. Scale bar, 20 μm. Statistical significance is evaluated by two-sample equal variance t-test (P<0.05; statistically significant). Data points are presented as means and standard deviation.
APAP-induced liver injury animal model. Healthy male BALB/c mice were pre-fasted for 5 h and then intraperitoneally injected with APAP saline solution (˜28 mg/mL) at an overdose of 300 mg/kg body weight. […]

[6] = Tumor targeting efficiency in MCF-7 xenograft mice; type: in vivo; settings: nude, mouse, tumor (MCF-7 xenograft), intravenous, 24 hr p.i., read-out: tumor targeting efficiency (ICG)
Source text: Blue arrows indicate the tumors.

[7] = Blood pharmacokinetics after intravenous injection; settings: i.v.
Method: Statistical significance is evaluated using a two-sample unequal variances (Welch's) t-test (**P<0.01, ***P<0.005). Data points are reported as mean±s.d.
Both curves were fitted with two-phase exponential decay functions to obtain the weighted average half-lives.
Pharmacokinetics and biodistribution study of 1CG4-GS-Au25. […] At certain time point post-injection, blood sample (˜30 μL) was retro-orbitally collected and weighed, followed by the addition of 500 μL lysis buffer containing 20 mM cysteine (pH˜8) to liberate ICG from Au25 nanocluster and recover the quenched fluorescence of ICG. Then fluorescence of cysteine treated blood sample was measured by the in vivo imaging system to quantify ICG in blood. Afterwards, the blood sample was completely dissolved in freshly made aqua regia and the Au amount in blood was analyzed by ICP-MS.

[8] = in vivo; settings: nude, mouse, in vivo
Source text: (§1) FIGS. 30A-B. Decay of background tissue fluorescence signal over time. (FIG. 30A) Representative in vivo imaging of 1CG4-GS-Au25 injected mouse (72 hr p.i.) illustrating the region of interest (ROI) chosen for tumor (red dashed circle) and background tissue (yellow dashed circle) ICG fluorescence quantification. Red arrows indicate tumor location.

[9] = tested on: MCF-7 tumor; experiment: in vivo; settings: MCF-7 tumor bearing nude mice
Source text: as §1

SMILES: CC(=O)Nc1ccc(O)cc1 [APAP, acetaminophen]
hepatic GSH level of overdosed mice, of that of the control mice ([1]; APAP 300 mg/kg): ~36%
hepatic GSH level ([1]; APAP normal dose 60 mg/kg): 6.6±0.8 μmole/g tissue
hepatic GSH level ([1]; APAP overdose 300 mg/kg): 2.1±1.2 μmole/g tissue
serum GSH level [2]: didn't change significantly

SMILES: CCOC(=O)/C=C\C(=O)OCC [DEM, diethyl maleate]
liver GSH level ([1]; 0.3 mg/kg body weight DEM, intraperitoneal): ~3.1 μmole/g liver tissue
liver GSH level ([1]; 0.6 mg/kg body weight DEM, intraperitoneal): ~0.6 μmole/g liver tissue
duration of low plasma GSH level before recovery ([4]; single injection of DEM): 2 to 3 h
plasma GSH level, of the initial value ([4]; single intraperitoneal injection of DEM, 1 mL/kg): ~12%

SMILES: CC(=O)N[C@@H](CS)C(=O)O [NAC, N-acetylcysteine]
effect on liver damage (morphology, TUNEL) ([5]; NAC at 30 min post-injection of APAP (early treatment)): almost completely reverse the liver damage
effect on liver damage (morphology, TUNEL) ([5]; NAC at 5.5 h after APAP overdose (delayed treatment)): severe hemorrhage on the liver tissue as well as the pervasive death of liver cells

Further lines, with some results ahead:

liver GSH level ([1]; 0.5 h after CPZ 100 mg/kg i.p.): decrease in hepatic GSH level
SMILES: CN(C)CCCN1c2ccccc2Sc2ccc(Cl)cc21 [CPZ, chlorpromazine]

AUC (blood retention) [3]: 7.4±0.2 % ID/g×h
SMILES: [NH2][Pt]([NH2])([OH])([Cl])([Cl])[O]C(=O)CCC(=O)O [Cis-Pt prodrug, cis,cis,trans-[Pt(NH3)2Cl2(OH)(O2CCH2CH2COOH)]]

tissue uptake at 24 h [6]: ~0.15 %ID/g
ICG blood retention (AUC) [7]: ~1.9 h×% ID/g
half-life ([8]; half-life of ICG retention (fluorescence decay) in tumor): ~3.8 h
half-life ([8]; half-life of ICG signal in background tissues): 3.5 h
SMILES: CC1(C)C(/C=C/C=C/C=C/C=C2\N(CCCCS(=O)(=O)O)c3ccc4ccccc4c3C2(C)C)=[N+](CCCCS(=O)(=O)[O-])c2ccc3ccccc3c21 [free ICG, indocyanine green]
maximum tumor contrast index (CI) [9]: 1.8
